Source: patent US8361507B2, “Eprosartan mesylate crystalline particles and a process for preparing pure eprosartan” (Hetero Drugs Limited, priority 2007, dated 2013)
Where a name gives a salt, the structure may show the parent alone.

Key:
[1] = Specific surface area by Brunauer-Emmett-Teller (B.E.T.) nitrogen absorption; type: physicochemical; conditions: B.E.T. method, crystalline particles
Excerpt: Specific surface area is defined in units of square meters per gram (m^2/g). It is usually measured by nitrogen absorption analysis. In this analysis, nitrogen is absorbed on the surface of the substance. The amount of the absorbed nitrogen (as measured during the absorption or the subsequent desorption process) is related to the surface area via a formula known as the B.E.T. formula.

[2] = Particle size distribution by laser diffraction (Sympatec Helos); type: physicochemical; conditions: crystalline particles
Excerpt: As used herein “Particle Size Distribution (P.S.D.)” means the cumulative volume size distribution of equivalent spherical diameters as determined by laser diffraction at 1 bar dispersive pressure in a Sympatec Helos equipment. “Mean particle size distribution, i.e., d(0.5)” correspondingly, means the median of said particle size distribution.

[3] = crystalline particles disclosed in WO 00/53282; cited from earlier work
[4] = cited from earlier work

Specific Surface Area [1]	90 volume-% of the particles (D90) [2] [μm]	Mean particle size (D50) [2] [μm]	SMILES	d90 value [3]	solubility in methanol ([4]; methanol)	solubility in water ([4]; water)
0.53 m^2/g	213.72	70.56	CCCCc1ncc(/C=C(\Cc2cccs2)C(=O)O)n1Cc1ccc(C(=O)O)cc1 [Reference Example 3, eprosartan mesylate]			
1.09 m^2/g	33.48	12.13	CCCCc1ncc(/C=C(\Cc2cccs2)C(=O)O)n1Cc1ccc(C(=O)O)cc1 [Example 2, eprosartan mesylate]			
1.11 m^2/g	30.42	11.23	CCCCc1ncc(/C=C(\Cc2cccs2)C(=O)O)n1Cc1ccc(C(=O)O)cc1 [Example 4, eprosartan mesylate]			
below 0.6 m^2/g			CCCCc1ncc(/C=C(\Cc2cccs2)C(=O)O)n1Cc1ccc(C(=O)O)cc1 [eprosartan mesylate, (αE)-α-[[2-n-Butyl-1-[(4-carboxyphenyl)methyl]-1H-imidazol-5-yl]methylene-2-thiophenepropanoic acid monomethanesulfonate]	less than 10 micron	soluble	practically insoluble
